Experimental data published in ChEMBL document CHEMBL3632586, “Designing, synthesis of selective and high-affinity chalcone-benzothiazole hybrids as Brugia malayi thymidylate kinase inhibitors: In vitro validation and docking studies” (Eur J Med Chem, 2015).
Converted amounts (≈) assume the structure as drawn. One block for each compound: values may come before it.

Columns and labels:
[1] = Inhibition of recombinant Brugia malayi TMK using dTMP as substrate by pyruvate kinase/lactate dehydrogenase coupled assay
Brugia malayi [2] = experiment: Antifilarial activity against adult Brugia malayi assessed as motility reduction after 1 hr by microscopic analysis; assay type: functional, organism-based
Brugia malayi [3] = experiment: Antifilarial activity against Brugia malayi microfilariae assessed as motility reduction after 1 hr by microscopic analysis; assay type: functional, organism-based
[4] = Cytotoxicity against African green monkey Vero cells after 72 hrs by resazurin dye-based fluorometric analysis; assay type: cell-based; conditions: chlorocebus sabaeus
[5] = Therapeutic index, ratio of CC50 for monkey VERO cells to IC50 for adult Brugia malayi; assay type: cell-based; conditions: for selectivity ratio: Vero cells, read-out: Ratio CC50/IC50
[6] = Therapeutic index, ratio of CC50 for monkey VERO cells to IC50 for Brugia malayi microfilariae; assay type: cell-based; conditions: for selectivity ratio: Vero cells, read-out: Ratio CC50/IC50
Brugia malayi [7] = experiment: Antifilarial activity against adult Brugia malayi assessed as reduction in viability at 10 uM/ml after 24 to 48 hrs by MTT assay; assay type: functional
Brugia malayi [8] = experiment: Antifilarial activity against adult Brugia malayi assessed as reduction in viability at 5 uM/ml after 24 to 48 hrs by MTT assay; assay type: functional
Brugia malayi [9] = experiment: Antifilarial activity against adult Brugia malayi assessed as reduction in viability at 2.5 uM/ml after 24 to 48 hrs by MTT assay; assay type: functional
Brugia malayi [10] = experiment: Antifilarial activity against adult Brugia malayi assessed as reduction in viability at 1.25 uM/ml after 24 to 48 hrs by MTT assay; assay type: functional
Brugia malayi [11] = experiment: Antifilarial activity against adult Brugia malayi assessed as motility reduction at 10 uM/ml after 1 hr by microscopic analysis; assay type: functional
Brugia malayi [12] = experiment: Antifilarial activity against adult Brugia malayi assessed as motility reduction at 5 uM/ml after 1 hr by microscopic analysis; assay type: functional
Brugia malayi [13] = experiment: Antifilarial activity against adult Brugia malayi assessed as motility reduction at 2.5 uM/ml after 1 hr by microscopic analysis; assay type: functional
Brugia malayi [14] = experiment: Antifilarial activity against adult Brugia malayi assessed as motility reduction at 1.25 uM/ml after 1 hr by microscopic analysis; assay type: functional
Brugia malayi [15] = experiment: Antifilarial activity against Brugia malayi microfilariae assessed as motility reduction at 10 uM/ml after 1 hr by microscopic analysis; assay type: functional
Brugia malayi [16] = experiment: Antifilarial activity against Brugia malayi microfilariae assessed as motility reduction at 5 uM/ml after 1 hr by microscopic analysis; assay type: functional
Brugia malayi [17] = experiment: Antifilarial activity against Brugia malayi microfilariae assessed as motility reduction at 2.5 uM/ml after 1 hr by microscopic analysis; assay type: functional
Brugia malayi [18] = experiment: Antifilarial activity against Brugia malayi microfilariae assessed as motility reduction at 1.25 uM/ml after 1 hr by microscopic analysis; assay type: functional
Brugia malayi [19] = experiment: Antifilarial activity against adult Brugia malayi assessed as reduction in viability at 0.625 uM/ml after 24 to 48 hrs by MTT assay; assay type: functional
Brugia malayi [20] = experiment: Antifilarial activity against adult Brugia malayi assessed as motility reduction at 0.625 uM/ml after 1 hr by microscopic analysis; assay type: functional
Brugia malayi [21] = experiment: Antifilarial activity against Brugia malayi microfilariae assessed as motility reduction at 0.625 uM/ml after 1 hr by microscopic analysis; assay type: functional
Brugia malayi [22] = experiment: Antifilarial activity against adult Brugia malayi assessed as reduction in viability at 0.6 uM/ml after 24 to 48 hrs by MTT assay; assay type: functional, organism-based
Brugia malayi [23] = experiment: Antifilarial activity against adult Brugia malayi assessed as reduction in viability at 0.3 uM/ml after 24 to 48 hrs by MTT assay; assay type: functional, organism-based
Brugia malayi [24] = experiment: Antifilarial activity against adult Brugia malayi assessed as reduction in viability at 0.15 uM/ml after 24 to 48 hrs by MTT assay; assay type: functional, organism-based
Brugia malayi [25] = experiment: Antifilarial activity against adult Brugia malayi assessed as motility reduction at 0.6 uM/ml after 1 hr by microscopic analysis; assay type: functional, organism-based
Brugia malayi [26] = experiment: Antifilarial activity against adult Brugia malayi assessed as motility reduction at 0.3 uM/ml after 1 hr by microscopic analysis; assay type: functional, organism-based
Brugia malayi [27] = experiment: Antifilarial activity against adult Brugia malayi assessed as motility reduction at 0.15 uM/ml after 1 hr by microscopic analysis; assay type: functional, organism-based
Brugia malayi [28] = experiment: Antifilarial activity against Brugia malayi microfilariae assessed as motility reduction at 0.6 uM/ml after 1 hr by microscopic analysis; assay type: functional, organism-based
Brugia malayi [29] = experiment: Antifilarial activity against Brugia malayi microfilariae assessed as motility reduction at 0.3 uM/ml after 1 hr by microscopic analysis; assay type: functional, organism-based
Brugia malayi [30] = experiment: Antifilarial activity against Brugia malayi microfilariae assessed as motility reduction at 0.15 uM/ml after 1 hr by microscopic analysis; assay type: functional, organism-based

Compound: CC(C)c1cc(/C=N/Nc2nc3ccccc3s2)cc(/C=C/C(=O)c2cccs2)c1O
Ki [1]: 2.02 µM
IC50 (Brugia malayi [2]): 2.12 µM
MIC (Brugia malayi [2]): 5 µM (≈ 2.24 µg/mL)
IC50 (Brugia malayi [3]): 1.63 µM
MIC (Brugia malayi [3]): 5 µM (≈ 2.24 µg/mL)
CC50 at 72 h [4]: 95.3 µM
selectivity ratio [5]: 44.9
selectivity ratio [6]: 58.5
inhibition at 5 µM (Brugia malayi [8]): 85%
inhibition at 2.5 µM (Brugia malayi [9]): 40.3%
inhibition at 1.25 µM (Brugia malayi [10]): 9.3%
inhibition at 0.625 µM (Brugia malayi [19]): 8.7%
inhibition at 5 µM (Brugia malayi [12]): 100%
inhibition at 2.5 µM (Brugia malayi [13]): 50%
inhibition at 1.25 µM (Brugia malayi [14]): 1%
inhibition at 0.625 µM (Brugia malayi [20]): 1%
inhibition at 5 µM (Brugia malayi [16]): 100%
inhibition at 2.5 µM (Brugia malayi [17]): 75%
inhibition at 1.25 µM (Brugia malayi [18]): 50%
inhibition at 0.625 µM (Brugia malayi [21]): 1%

Compound: Cc1cc(/C=N/Nc2nc3ccccc3s2)cc(/C=C/C(=O)c2ccccc2)c1O
Ki [1]: 16.5 µM

Compound: CCC(C)c1cc(/C=N/Nc2nc3ccccc3s2)cc(/C=C/C(=O)c2ccc(OC)cc2)c1O (stereo not drawn)
Ki [1]: 4.89 µM

Compound: CC(C)(C)c1cc(/C=N/Nc2nc3ccccc3s2)cc(/C=C/C(=O)c2ccc(F)cc2)c1O
Ki [1]: 3.17 µM

Compound: IVERMECTIN [listing 1 of 2 here]
Ratio CC50/IC50 ([5]; vero): 29.5
Ratio CC50/IC50 ([6]; vero): 13.28

Compound: CC(C)c1cc(/C=N/Nc2nc3ccccc3s2)cc(/C=C/C(=O)c2ccc(Cl)cc2)c1O
Ki [1]: 22.8 µM

Compound: COc1ccc(C(=O)/C=C/c2cc(/C=N/Nc3nc4ccccc4s3)cc(C(C)C)c2O)cc1OC
Ki [1]: 50.6 µM

Compound: CCc1cc(/C=N/Nc2nc3ccccc3s2)cc(/C=C/C(=O)c2ccc(OC)cc2)c1O
Ki [1]: 30.4 µM

Compound: CCCc1cc(/C=N/Nc2nc3ccccc3s2)cc(/C=C/C(=O)c2ccc(Cl)cc2)c1O
Ki [1]: 26.6 µM

Compound: IVERMECTIN [listing 2 of 2 here]
MIC (Brugia malayi [2]): 8.9 µM
MIC (Brugia malayi [3]): 10 µM
inhibition (Brugia malayi [7]): 76%
inhibition (Brugia malayi [8]): 62.9%
inhibition (Brugia malayi [9]): 50.5%
inhibition (Brugia malayi [10]): 34.9%
inhibition (Brugia malayi [22]): 22.9%
inhibition (Brugia malayi [23]): 10.7%
inhibition (Brugia malayi [24]): 15.7%
inhibition (Brugia malayi [11]): 100%
inhibition (Brugia malayi [12]): 100%
inhibition (Brugia malayi [13]): 100%
inhibition (Brugia malayi [14]): 100%
inhibition (Brugia malayi [25]): 100%
inhibition (Brugia malayi [26]): 50%
inhibition (Brugia malayi [27]): 1%
inhibition (Brugia malayi [15]): 100%
inhibition (Brugia malayi [16]): 75%
inhibition (Brugia malayi [17]): 75%
inhibition (Brugia malayi [18]): 75%
inhibition (Brugia malayi [28]): 50%
inhibition (Brugia malayi [29]): 0%
inhibition (Brugia malayi [30]): 0%

Continued by falling Ki [1], values first:

Ki [1]: 27.1 µM
Compound: CCCc1cc(/C=N/Nc2nc3ccccc3s2)cc(/C=C/C(=O)c2ccc(OC)c(OC)c2)c1O

Ki [1]: 21.6 µM
Compound: CC(C)c1cc(/C=N/Nc2nc3ccccc3s2)cc(/C=C/C(=O)c2ccc(F)cc2)c1O

Ki [1]: 20.3 µM
Compound: CC(C)(C)c1cc(/C=N/Nc2nc3ccccc3s2)cc(/C=C/C(=O)c2ccccc2)c1O

Ki [1]: 7.91 µM
Compound: CCC(C)c1cc(/C=N/Nc2nc3ccccc3s2)cc(/C=C/C(=O)c2ccc(F)cc2)c1O (stereo not drawn)

Ki [1]: 4.69 µM
Compound: Cc1ccc(C(=O)/C=C/c2cc(/C=N/Nc3nc4ccccc4s3)cc(C(C)(C)C)c2O)cc1

Ki [1]: 3.09 µM
Compound: COc1ccc(C(=O)/C=C/c2cc(/C=N/Nc3nc4ccccc4s3)cc(C(C)C)c2O)cc1

Ki [1]: 2.49 µM
IC50 (Brugia malayi [2]): 4.34 µM
MIC (Brugia malayi [2]): 10 µM (≈ 4.28 µg/mL)
IC50 (Brugia malayi [3]): 2.64 µM
MIC (Brugia malayi [3]): 10 µM (≈ 4.28 µg/mL)
Compound: CCc1cc(/C=N/Nc2nc3ccccc3s2)cc(/C=C/C(=O)c2ccccc2)c1O
CC50 at 72 h [4]: 48.6 µM
selectivity ratio [5]: 11.2
selectivity ratio [6]: 18.4
inhibition at 10 µM (Brugia malayi [7]): 90.4%
inhibition at 5 µM (Brugia malayi [8]): 48%
inhibition at 2.5 µM (Brugia malayi [9]): 30%
inhibition at 1.25 µM (Brugia malayi [10]): 10.5%
inhibition at 10 µM (Brugia malayi [11]): 100%
inhibition at 5 µM (Brugia malayi [12]): 50%
inhibition at 2.5 µM (Brugia malayi [13]): 1%
inhibition at 1.25 µM (Brugia malayi [14]): 1%
inhibition at 10 µM (Brugia malayi [15]): 100%
inhibition at 5 µM (Brugia malayi [16]): 75%
inhibition at 2.5 µM (Brugia malayi [17]): 75%
inhibition at 1.25 µM (Brugia malayi [18]): 1%
